Holding throughout (format): cell-based, human
In experiment [1] the test system is protein synthesis in HL-60 cells. The experiment is described as follows: Inhibition of [2,3,4,5-3H]L-Leu incorporation into protein of HL-60 cells. Conditions: for inhibition at 30 µg/mL: Homo sapiens. As to the method: (§1) For the precursor incorporation studies, each compound (in 0.3% dimethylsulfoxide) was preincubated with HL-60 cells (a human promyelocytic leukemic cell line) 2.2×10^6 /ml, for 15 min prior to the addition of the labeled precursor (obtained from ICN Radiochemicals, Irvine, Calif.) and then incubated for 30 min. The precursors used for incorporation into DNA, RNA and protein were [^3 H-methyl]dThd (1 μCi, 0.15 nmole/ml), [5-^3 H]Cyd (5 μCi, 0.23 nmol/ml), and [2,3,4,5-^3 H]L-Leu (0.5 μCi, 0.004 nmol/ml), respectively. Incorporation of radioactivity in the absence of a plant compound and in the presence of dimethylsulfoxide was used as a control. The control values for incorporation into DNA, RNA and protein were 8,500, 5,600 and 1,700 cpm/10^6 cells, respectively. The incubation conditions and the procedures for isolating DNA, RNA and protein fractions have been previously described (Chou, T. -C., et al., Cancer Res., 43:3074-3079 (1983)) .
(§2) HL-60 cells were incubated with [5-^3 H]Cyd or [2,3,4,5-^3 H]L-Leu in the presence and absence of alkaloids (0.03 mg/ml) in order to find the effects of the alkaloid on the incorporation of labeled precursors into RNA or protein. […] Over 90% of RNA and protein biosynthesis were inhibited by compounds 11, 16, 17, 22, 28, 29and 30 (Table 1). […] In most cases, the amount required to inhibit precursor incorporation into DNA was less than that to inhibit precursor incorporation into RNA or protein (i.e. DNA synthesis is inhibited most potently).

In a further experiment the test system is HL-60 cells. Kind of experiment: HL-60 cell growth inhibition, 72 h. As to conditions: HL-60, 72 h; for IC50: read-out: Cell Growth Inhibition, IC50. As for the experimental part: For growth inhibition studies, HL-60 cells (1.5×10^5 /ml) were grown in RPMI 1640 media (GIBCO, Grand Island, N.Y.) at 37° C. in humidified 5% CO2 for 72 h. Viable cells were determined using trypan blue exclusion and counted in a hemocytometer. The fractional inhibition for each compound concentration (0.0025-0.05 mg/ml in 0.1% dimethylsulfoxide) was analyzed with the median-effect plot using a computer program (Chou, T. -C and P. Talalay, Adv. Enzyme Regul., 22:27-55 (1984); Chou, J. and T. -C. thou, Dose-Effect analysis with microcomputers: Quantitation of ED50, LD50, synergism, antagonism, low-dose risk, receptor ligand binding and enzyme kinetics. A computer software disk for Apple II series or IBM-PC and manual. Elsevier Science Publishers, Elsevier-BioSoft, Cambridge, United Kingdom (1986)). The median-effect concentration (IC50) was determined automatically for three to five dose-effect levels. Cell growth in the absence of plant compound and in the presence of dimethylsulfoxide was used as a control. Dimethylsulfoxide alone inhibited cell growth 3.9%±1.5% during the 72 h incubation period. Those data with negative values represent activations.

Experiment [2] relates to RNA synthesis in HL-60 cells. The experiment is described as follows: Inhibition of [5-3H]Cyd incorporation into RNA of HL-60 cells. As to conditions: for inhibition at 30 µg/mL: Homo sapiens, HL-60, 0.5 h. As for the experimental part:
as §1, §2

Experiment [3] relates to DNA synthesis in HL-60 cells. The experiment is described as follows: Inhibition of [3H-methyl]dThd incorporation into DNA of HL-60 cells. Conditions: for inhibition at 30 µg/mL: Homo sapiens, HL-60, at 0.03 mg/mL, read-out: % Inhibition of Precursor Incorporation, DNA; for inhibition of DNA synthesis, in words: HL-60, 0.03 mg/ml. As to the method: as §1, with “control.” for “control. The control values for incorporation into DNA, RNA and protein were 8,500, 5,600 and 1,700 cpm/10^6 cells, respectively. The incubation conditions and the procedures for isolating DNA, RNA and protein fractions have been previously described (Chou, T. -C., et al., Cancer Res., 43:3074-3079 (1983)) .”
Human promyelocytic cells (HL-60) were incubated with [^3 H-methyl]dTHDin the presence and absence of a plant alkaloid.

The mark [4] stands for this setting: HL-60, read-out: % Inhibition of Precursor Incorporation, Protein, at 0.03 mg/mL.
[5] abbreviates: read-out: % Inhibition of Precursor Incorporation, RNA, at 0.03 mg/mL.
The mark [6] stands for this setting: HL-60, at 0.03 mg/mL, read-out: % Inhibition of Precursor Incorporation, Protein.
Setting [7] is: at 0.03 mg/mL, read-out: % Inhibition of Precursor Incorporation, RNA.

Each structure is given as a SMILES string. “And” between values parts separate entries of the source, which are not always exact repeats. Equal entries are not always repeated. Where two headings read alike, the source gives them in different places.

The term IC50 denotes the concentration at which inhibition is half-maximal. As for `CC(C)=CCc1c(O)c(CC=C(C)C)c2c(c1O)c(=O)c1cccc(O)c1n2C` [Compound 26, N-methyl-atalaphylline], the inhibition at 30 µg/mL in experiment [1] (setting [4]) amounted to 44.3%; in experiment [2] (setting [5]), 28.2%; in experiment [3] it was 99.6%. For the same molecule, the “cell growth inhibition, in words” value in the experiment with HL-60 cells was “significant activity against leukemic cells in vitro”. The IC50 in the experiment with HL-60 cells (Homo sapiens) was 5.4 µg/mL and 13.7 µM.
As to `COc1c(O)ccc2c(=O)c3c(O)cc(O)c(CC=C(C)C)c3n(C)c12` [Compound 27, Prenylcitpressine], the inhibition at 30 µg/mL is -15.7% in experiment [1] (setting [6]), 21.1% in experiment [2] (setting [7]) and 52.4% in experiment [3]. Moreover, in the experiment with HL-60 cells (Homo sapiens), the IC50 was 36 µg/mL and 94.5 µM.
For `COc1c(OC(C)=O)ccc2c(=O)c3c(O)cc(OC(C)=O)c(CC=C(C)C)c3n(C)c12` [Compound 28, 3,6-O,O-Diacetyl-prenylcitpressine], the results for the inhibition at 30 µg/mL in experiment [1] (setting [6]), in experiment [2] (setting [7]) and in experiment [3] were 89.6%, 96.1% and 96.8%, respectively. Besides, in the experiment with HL-60 cells, the “cell growth inhibition, in words” value is listed as “significant activity against leukemic cells in vitro”. Also, the IC50 with HL-60 cells (Homo sapiens) is 2.2 µg/mL and 5 µM.
As for `COc1cc(O)c2c(=O)c3ccc(O)c(OC)c3n(C)c2c1CC=C(C)C` [Compound 29, Grandisinine], the inhibition at 30 µg/mL in experiment [1] (setting [6]) stood at 94.6%; in experiment [2] (setting [7]), 96.5%; in experiment [3] it was 98.5%. Besides, the “cell growth inhibition, in words” value in the experiment on HL-60 cells is “significant activity against leukemic cells in vitro”. Also, the half-maximal inhibitory concentration (IC50) with HL-60 cells (Homo sapiens) was 6 µg/mL and 16.9 µM.
For `COc1ccc2c(=O)c3c(O)cc(OC)c(CC=C(C)C)c3n(C)c2c1OC` [Compound 30, Balyumine-B], the inhibition at 30 µg/mL in experiment [1] (setting [6]) was 87%; in experiment [2] (setting [7]) it was 92.5%; in experiment [3], 86.9%. In the experiment with HL-60 cells (Homo sapiens), the IC50 was 1.7 µg/mL and 4.4 µM.
`CC1(C)C=Cc2c(cc(O)c3c(=O)c4ccccc4[nH]c23)O1` [Compound 32, des-N-methyl-nor-acronycine]: the inhibition at 30 µg/mL in experiment [1] (setting [6]) was 85.9%; in experiment [2] (setting [7]), 77.5%; in experiment [3], 69.2%. Besides, the “cell growth inhibition, in words” value with HL-60 cells is listed as “only showed moderate cell growth inhibitory activity”. The 50% inhibitory concentration (IC50) with HL-60 cells (Homo sapiens) was 9.1 µg/mL and 31 µM. Besides, in experiment [3], the “inhibition of DNA synthesis, in words” value is given as “did not show good activity”.
As for `COc1cc2c(c3[nH]c4ccccc4c(=O)c13)C=CC(C)(C)O2` [Compound 33, des-N-methyl acronycine], the inhibition at 30 µg/mL worked out at 86.4% in experiment [1] (setting [6]), 67.3% in experiment [2] (setting [7]) and 93.8% in experiment [3]. Further, the “cell growth inhibition, in words” value in the experiment on HL-60 cells was “significantly active”. For the same molecule, the IC50 with HL-60 cells (Homo sapiens) is 5.4 µg/mL and 17.6 µM. Further, the “inhibition of DNA synthesis, in words” value in experiment [3] was “markedly increased”.
As for `Cn1c2ccccc2c(=O)c2c(O)cc3c(c21)C=CC(C)(C)O3` [Compound 35, Noracronycine], the inhibition at 30 µg/mL in experiment [1] (setting [6]) was determined as 4.7%; in experiment [2] (setting [7]), 94%; in experiment [3] it was 25.5%. For the same molecule, in the experiment on HL-60 cells, the “cell growth inhibition, in words” value is recorded as “only showed moderate cell growth inhibitory activity”. Besides, in the experiment on HL-60 cells (Homo sapiens), the IC50 was > 40 µg/mL and > 130 µM.
For the molecule `Cn1c2c(O)cccc2c(=O)c2c(O)cc3c(c21)CCC(C)(C)O3` [Compound 38, 1,2-Dihydro-11-hydroxy-nor acronycine], the inhibition at 30 µg/mL in experiment [1] (setting [6]) is 92.2%; in experiment [2] (setting [7]) it was 76.6%; in experiment [3] it was 98.8%. Further, the “cell growth inhibition, in words” value with HL-60 cells is recorded as “only half as potent as their parent compounds”. Further, in the experiment on HL-60 cells (Homo sapiens), the IC50 was 5.5 µg/mL and 16.9 µM. Moreover, the “inhibition of DNA synthesis, in words” value in experiment [3] was “same potency as their parent compounds”.
As for `COc1cccc2c(=O)c3c(O)cc4c(c3n(C)c12)C=CC(C)(C)O4` [Compound 39, 11-methoxy-noracronycine], the “% Inhibition of Precursor Incorporation, Protein” value in experiment [1] (at 0.03 mg/mL) was found to be 36.2%. Besides, in the experiment with HL-60 cells, the “Cell Growth Inhibition, IC50” value amounted to 5.8 µg/mL and the IC50 came out at 17.2 µM. Besides, in experiment [2] (at 0.03 mg/mL), the “% Inhibition of Precursor Incorporation, RNA” value is listed as 39.9%. In experiment [3] (at 0.03 mg/mL), the “% Inhibition of Precursor Incorporation, DNA” value was 98.9%.
As for `CC(C)=CCc1c2c(c3[nH]c4c(O)cccc4c(=O)c3c1O)C=CC(C)(C)O2` [Compound 40, Atalaphyllinine], the figures for the inhibition at 30 µg/mL in experiment [1] (setting [4]), in experiment [2] (setting [5]) and in experiment [3] were 41.8%, 24.4% and 98.8%, respectively. Moreover, in the experiment on HL-60 cells, the “cell growth inhibition, in words” value is given as “comparable activity”. In the experiment with HL-60 cells (Homo sapiens), the IC50 is 1.2 µg/mL and 3.2 µM. Also, the “inhibition of DNA synthesis, in words” value in experiment [3] is “greater activity”.
Regarding `CC(C)=CCc1c2c(c3c(c1O)c(=O)c1ccccc1n3C)C=CC(C)(C)O2` [Compound 41, N-Methylseverifoline], the inhibition at 30 µg/mL in experiment [1] (setting [6]) was 13.2%; in experiment [2] (setting [7]), -17.9%; in experiment [3] it was 21.3%. For the same molecule, the “cell growth inhibition, in words” value in the experiment with HL-60 cells is “only showed moderate cell growth inhibitory activity”. The IC50 in the experiment on HL-60 cells (Homo sapiens) is > 40 µg/mL and > 107 µM. Also, in experiment [3], the “inhibition of DNA synthesis, in words” value is on record as “no effect on the inhibitory activity”.
In the case of `COc1c(O)ccc2c(=O)c3c(O)cc4c(c3n(C)c12)C=CC(C)(C)O4` [Compound 42, Citracridone-I], the results for the inhibition at 30 µg/mL in experiment [1] (setting [6]), in experiment [2] (setting [7]) and in experiment [3] were 90.5%, 96.9% and 98.5%, respectively. Further, in the experiment with HL-60 cells (Homo sapiens), the half-maximal inhibitory concentration (IC50) is 2.9 µg/mL and 8.2 µM.
With `COc1c(O)ccc2c(=O)c3c(O)cc4c(c3n(C)c12)CCC(C)(C)O4` [Compound 43, 1,2-dihydrocitracridone-I], the inhibition at 30 µg/mL in experiment [1] (setting [6]) turned out to be 81.9%; in experiment [2] (setting [7]), 68%; in experiment [3], 94.9%. Besides, the “cell growth inhibition, in words” value with HL-60 cells is given as “only half as potent as their parent compounds”. Further, the IC50 in the experiment with HL-60 cells (Homo sapiens) is 6.4 µg/mL and 18 µM. Further, the “inhibition of DNA synthesis, in words” value in experiment [3] is given as “same potency as their parent compounds”.
Take `COc1ccc2c(=O)c3c(O)cc4c(c3n(C)c2c1OC)C=CC(C)(C)O4` [Compound 44, Citracridone-II]: the results for the inhibition at 30 µg/mL in experiment [1] (setting [6]), in experiment [2] (setting [7]) and in experiment [3] were 62.7%, 96.4% and 77.6%, respectively. Besides, in the experiment on HL-60 cells (Homo sapiens), the IC50 is > 40 µg/mL and > 109 µM.
`COc1ccc2c(=O)c3c(OC)cc4c(c3n(C)c2c1OC)C=CC(C)(C)O4` [Compound 45, 6-O-Methylcitracridone-II]: the figures for the inhibition at 30 µg/mL in experiment [1] (setting [6]), in experiment [2] (setting [7]) and in experiment [3] were 49.8%, 37.8% and 98.7%, respectively. Moreover, the “cell growth inhibition, in words” value with HL-60 cells was “significantly active”. Also, in the experiment with HL-60 cells (Homo sapiens), the IC50 was 5.9 µg/mL and 15.5 µM.
For `CC(C)=CCc1c2c(c3c(c1O)c(=O)c1cccc(O)c1n3C)C=CC(C)(C)O2` [Compound 46, 11-Hydroxy-N-methyl severifoline], the inhibition at 30 µg/mL was determined as 4.22% in experiment [1] (setting [4]), 16.7% in experiment [2] (setting [5]) and 97.9% in experiment [3]. In addition, in the experiment on HL-60 cells (Homo sapiens), the IC50 is 5.9 µg/mL and 15.1 µM. Further, in experiment [3], the “inhibition of DNA synthesis, in words” value is reported as “significant activity”.

The values above are taken from patent US5340818A, “Methods and compositions for inhibiting tumor cell growth” (priority 1993, dated 1994).
